Results reported in patent publication US20250145570A1, “DHODH INHIBITOR POLYMORPH” (Aslan Pharmaceuticals Pte Ltd, priority 2022, published 2025).

Assay: Characterisation of new polymorphs: XRPD before and after drying/grinding
Type: physicochemical
Experimental: 500 μL 1,1,1.3.3.3-Hexafluoro-2-Propanol was added to 20 mg of amorphous farudodstat DSP polymorph in a 1.5 mL of HPLC vial equipped with a magnetic stirring bar, resulting in formation of a mobile slurry. The slurry was isothermally stirred for 2 weeks at 40° C. An additional 20 mg of material was added to the slurry as it became a clear solution after one week. Solids were isolated by centrifugation using a […] Nylon filter, and were analysed without any further drying by XRPD, TGA and 1H NMR (proton nuclear magnetic resonance). Finally, the samples were dried at 40° C. for 4 hrs and then reanalysed by XRPD.
350 μL of N-Methylpyrrolidone (NMP) was added to 20 mg of amorphous farudodstat DSP polymorph in a 1.5 mL HPLC vial equipped with a magnetic stirring bar to prepare a mobile slurry. The resulting slurry was thermally cycled for 3 days between 5-40° C. (Ramp rate: 0.1° C./min with isothermal holds of 1 hour at 40° C. and 5° C.). The saturated solution was then evaporated at 100° C., before the solids were analysed by XRPD.

- Stability of polymorphic form: unstable/metastable
- XRPD after gentle grinding (gentle grinding): did not change the pattern observed
Structure (SMILES): COc1cccc(-c2cc(F)c(Nc3ncccc3C(=O)O)c(F)c2)c1 [NMP polymorph]
- Form after drying (drying at 40° C. for 4 hours): conversion of Pattern 3 back to Pattern 1
